From US12552835B2, “Composition comprising Regentide-012 or Regentide-013 for improving skin condition” (NINEBIOPHARM CO., LTD., priority 2020, dated 2026) come the findings set out here.

Molecules are shown by their SMILES. Where a SMILES comes first, the peptide text is derived from it. Bridges are numbered along the chain shown (N, C = ends).

Common to all, as to assay type: cell-based, human
In data set [1] the test system is HaCaT cells. Put plainly: Cytotoxicity evaluation (CCK8 cell viability) in epidermal keratinocytes. The note with it: 5 μM or 10 μM, 48 hours, FBS-free medium. How it is done: (§1) The cytotoxicities of Regentide-012 and Regentide-013 prepared in Example 1 above were evaluated. Specifically, cytotoxicities were measured in HaCaT cells, which are human epidermal keratinocytes, and CCD-986Sk, which is human fibroblasts. Keratinocytes were dispensed at 3×10^3 cells/well and fibroblasts were dispensed at 5×10^3 cells/well in a 96-well plate, and then cultured in cell culture conditions for 24 hours in a medium containing 10% FBS. After culturing, Regentide-012 and Regentide-013 were added to an FBS-free medium in an amount of 5 μM or 10 μM, and these were cultured for 48 hours. Thereafter, 10 μl per well of CCK8 reaction solution (Dojindo Molecular Technologies, Kumamoto, Japan) was treated and reacted for 4 hours, and then absorbance was measured at 450 nm. The average absorbance value for each sample group was obtained, and the cell viability was evaluated by comparing it with the absorbance values of cells that had not been treated with Regentide-012 and Regentide-013 as a control group.

Data set [2] has as its system CCD-986Sk. The data set can be described thus: Cytotoxicity evaluation (CCK8 cell viability) in fibroblasts. The note with it: 5 μM or 10 μM, 48 hours, FBS-free medium. The method, then:
as §1

In data set [3] the test system is HaCaT cells. Put plainly: Epidermal keratinocyte growth promoting efficacy (cell number). As to conditions: 0.5 μM, after 8 days. How it is done: In order to confirm the cell proliferation abilities of Regentide-012 and Regentide-013, HaCaT cells, which are epidermal keratinocytes, were dispensed at 1×10^4 cells/well in a 6-well plate, and then cultured for 6 hours in a medium containing 10% FBS. Thereafter, Regentide-012 and Regentide-013 were added at various concentrations (0, 0.1, 0.2, or 0.5 μM) and cultured for 8 days. The medium was replaced with a medium containing Regentide-012 and Regentide-013 in various concentrations every day, and the number of cells was measured at intervals of two days.

For another data set, the system named is CCD986Sk cells. The data set can be described thus: Fibroblast growth promoting efficacy (cell number). The note with it: 0.5 μM, after 8 days. How it is done: In order to confirm the cell proliferation abilities of Regentide-012 and Regentide-013, CCD986Sk cells, which are fibroblasts, were dispensed at 1×10^4 cells/well in a 6-well plate, and then cultured for 6 hours in a medium containing 10% FBS. Thereafter, Regentide-012 and Regentide-013 were added at various concentrations (0, 0.1, 0.2, or 0.5 μM) and cultured for 8 days. The medium was replaced with a medium containing Regentide-012 and Regentide-013 in various concentrations every day, and the number of cells was measured at intervals of two days.

The subject of data set [4] is HaCaT cells. The data set can be described thus: Wound recovery effect of epidermal keratinocytes (insert gap migration). The note with it: 1 and 2.5 μM, FBS-free medium, 16 and 40 hours. The method, then: (§2) In order to confirm the wound recovery effects of Regentide-012 and Regentide-013, HaCaT cells, which are epidermal keratinocytes, were attached to a 6-well plate with an adhesive insert (Insert, Ibidi, Wisconsin, USA). The cells were dispensed at 6×10^4 cells/well in each well of the insert, and then cultured in cell culture conditions for 24 hours in a medium containing 2% FBS. Thereafter, the insert was removed and washed once using 1×DPBS. Regentide-012 and Regentide-013 were added to the medium at various concentrations (0, 1, and 2.5 μM) in an FBS-free medium, and cell images were photographed at 100 times using a microscope (Nikon Eclipse E100, Tokyo, Japan) after 16 and 40 hours.

Data set [5] concerns CCD-986Sk. The data set can be described thus: Wound recovery effect of fibroblasts (insert gap migration). The note with it: 1 and 2.5 μM, FBS-free medium, 16 and 40 hours. How it is done:
as §2, with “CCD-986sk, which is dermal” for “HaCaT”, “was” for “which are epidermal keratinocytes, were”, “[…] was” for “Regentide-012 and Regentide-013 were”, “measured” for “photographed”

For `CC[C@H](C)[C@H](NC(=O)[C@H](CCC(N)=O)NC(=O)[C@H](CCC(=O)O)NC(=O)[C@@H](N)CCCCN)C(=O)NCC(=O)N[C@@H](CCCCN)C(=O)N[C@H]1CSSC[C@@H](C(=O)N[C@@H](CCCNC(=N)N)C(=O)N[C@@H](CCCNC(=N)N)C(=O)N[C@@H](CCCCN)C(=O)N[C@@H](CCCCN)C(=O)O)NC(=O)[C@H](Cc2c[nH]c3ccccc23)NC(=O)[C@H](CCCCN)NC(=O)[C@H](CCCNC(=N)N)NC(=O)CNC(=O)[C@H](CCCNC(=N)N)NC(=O)[C@H]([C@@H](C)O)NC(=O)[C@H](CO)NC1=O` [Regentide-012, KEQIGKCSTRGRKWCRRKK] (H-KEQIGKCSTRGRKWCRRKK-OH; disulfide 7-15), the “cytotoxicity to epidermal keratinocytes” value in the data set on HaCaT cells [1] is given as “not toxic”. In addition, in the data set on CCD-986Sk [2], the cytotoxicity to fibroblasts entry is on record as “not toxic”.
As to `CC[C@H](C)[C@H](NC(=O)[C@H](CCC(N)=O)NC(=O)[C@H](CCC(=O)O)NC(=O)[C@H](CCCCN)NC(C)=O)C(=O)NCC(=O)N[C@@H](CCCCN)C(=O)N[C@H]1CSSC[C@@H](C(=O)N[C@@H](CCCNC(=N)N)C(=O)N[C@@H](CCCNC(=N)N)C(=O)N[C@@H](CCCCN)C(=O)N[C@@H](CCCCN)C(N)=O)NC(=O)[C@H](Cc2c[nH]c3ccccc23)NC(=O)[C@H](CCCCN)NC(=O)[C@H](CCCNC(=N)N)NC(=O)CNC(=O)[C@H](CCCNC(=N)N)NC(=O)[C@H]([C@@H](C)O)NC(=O)[C@H](CO)NC1=O` [Regentide-013, Ac-KEQIGKCSTRGRKWCRRKK-NH2] (Ac-KEQIGKCSTRGRKWCRRKK-NH2; disulfide 7-15), in the data set with HaCaT cells [1], the “cytotoxicity to epidermal keratinocytes” value is “not toxic”. Further, in the data set on CCD-986Sk [2], the cytotoxicity to fibroblasts entry is “not toxic”. In addition, the “cell growth rate higher than the control group” value with HaCaT cells [3] is listed as 60.8%; in the data set on CCD986Sk cells it was 43.9%. For the same compound, the “cell numbers and cell migration abilities of epidermal keratinocytes” value in the data set with HaCaT cells [4] is “increased the cell numbers and cell migration abilities”. In addition, the “cell numbers and cell migration abilities of fibroblasts” value in the data set with CCD-986Sk [5] was “increased the cell numbers and cell migration abilities”.
